Laboratory results: ChEMBL document CHEMBL4190164 (Medchemcomm, 2016)

Assays:
[1] = biological target: Epidermal growth factor receptor (Homo sapiens, UniProt P00533); experiment: Inhibition of recombinant human GST-tagged wild-type EGFR expressed in baculovirus infected Sf9 insect cells using poly (Glu,Tyr) 4:1 as substrate after 60 mins in presence of [gamma33P]ATP by scintillation counting method
[2] = biological target: Insulin-like growth factor 1 receptor (Homo sapiens, UniProt P08069); experiment: Inhibition of recombinant human GST-tagged IGF1R expressed in baculovirus infected Sf9 insect cells using poly (Glu,Tyr) 4:1 as substrate after 60 mins in presence of [gamma33P]ATP by scintillation counting method
Sequence of Insulin-like growth factor 1 receptor (P08069 31-736 limits assumed): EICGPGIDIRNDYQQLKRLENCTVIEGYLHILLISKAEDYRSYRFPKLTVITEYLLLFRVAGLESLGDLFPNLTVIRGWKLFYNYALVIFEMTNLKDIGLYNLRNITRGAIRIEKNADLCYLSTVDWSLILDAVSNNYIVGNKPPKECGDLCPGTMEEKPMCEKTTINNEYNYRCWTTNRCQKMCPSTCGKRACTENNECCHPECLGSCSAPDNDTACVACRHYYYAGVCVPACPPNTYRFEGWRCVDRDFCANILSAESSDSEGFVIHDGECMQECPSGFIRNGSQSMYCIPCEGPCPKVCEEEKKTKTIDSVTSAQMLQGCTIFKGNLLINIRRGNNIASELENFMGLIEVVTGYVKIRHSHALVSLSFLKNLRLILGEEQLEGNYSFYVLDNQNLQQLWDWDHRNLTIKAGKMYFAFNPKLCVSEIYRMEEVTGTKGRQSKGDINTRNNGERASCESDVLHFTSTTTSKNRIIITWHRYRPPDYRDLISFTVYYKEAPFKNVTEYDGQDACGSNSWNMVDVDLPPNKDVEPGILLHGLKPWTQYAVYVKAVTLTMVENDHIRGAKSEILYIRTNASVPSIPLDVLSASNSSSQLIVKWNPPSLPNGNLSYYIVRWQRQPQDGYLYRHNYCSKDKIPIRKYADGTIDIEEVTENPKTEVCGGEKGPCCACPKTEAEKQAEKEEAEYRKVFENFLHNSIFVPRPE
Sequence of Insulin-like growth factor 1 receptor (P08069 741-1367 limits assumed): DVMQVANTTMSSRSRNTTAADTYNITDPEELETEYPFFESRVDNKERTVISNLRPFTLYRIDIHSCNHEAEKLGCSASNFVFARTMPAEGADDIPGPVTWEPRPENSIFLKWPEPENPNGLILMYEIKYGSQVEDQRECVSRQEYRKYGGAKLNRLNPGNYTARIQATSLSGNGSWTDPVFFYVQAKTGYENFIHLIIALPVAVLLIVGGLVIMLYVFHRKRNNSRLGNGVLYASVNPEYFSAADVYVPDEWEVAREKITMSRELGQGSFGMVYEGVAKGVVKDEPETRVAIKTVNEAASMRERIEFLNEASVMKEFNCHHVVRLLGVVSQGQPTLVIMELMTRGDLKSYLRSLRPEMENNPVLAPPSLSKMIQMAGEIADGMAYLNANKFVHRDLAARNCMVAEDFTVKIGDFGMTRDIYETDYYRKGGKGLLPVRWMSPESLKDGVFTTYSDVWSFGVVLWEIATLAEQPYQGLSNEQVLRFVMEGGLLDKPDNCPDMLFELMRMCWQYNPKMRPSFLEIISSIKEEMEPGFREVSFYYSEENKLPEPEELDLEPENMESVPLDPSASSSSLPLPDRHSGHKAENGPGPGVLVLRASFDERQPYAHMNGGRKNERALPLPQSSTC

BT-549 = experiment: Growth inhibition of human BT549 cells at 10 uM after 48 hrs by sulforhodamine B assay relative to control; format: functional; conditions: BT-549, 48 h, read-out: GI
Hs-578T = experiment: Growth inhibition of human Hs 578T cells at 10 uM after 48 hrs by sulforhodamine B assay relative to control; format: functional; conditions: read-out: GI
HOP-62 = experiment: Growth inhibition of human HOP62 cells at 10 uM after 48 hrs by sulforhodamine B assay relative to control; format: functional; conditions: HOP-62, 48 h, read-out: GI
NCI-H460 = experiment: Growth inhibition of human NCI-H460 cells at 10 uM after 48 hrs by sulforhodamine B assay relative to control; format: functional; conditions: NCI-H460, 48 h, read-out: GI

Sequence of Epidermal growth factor receptor (P00533 whole entry): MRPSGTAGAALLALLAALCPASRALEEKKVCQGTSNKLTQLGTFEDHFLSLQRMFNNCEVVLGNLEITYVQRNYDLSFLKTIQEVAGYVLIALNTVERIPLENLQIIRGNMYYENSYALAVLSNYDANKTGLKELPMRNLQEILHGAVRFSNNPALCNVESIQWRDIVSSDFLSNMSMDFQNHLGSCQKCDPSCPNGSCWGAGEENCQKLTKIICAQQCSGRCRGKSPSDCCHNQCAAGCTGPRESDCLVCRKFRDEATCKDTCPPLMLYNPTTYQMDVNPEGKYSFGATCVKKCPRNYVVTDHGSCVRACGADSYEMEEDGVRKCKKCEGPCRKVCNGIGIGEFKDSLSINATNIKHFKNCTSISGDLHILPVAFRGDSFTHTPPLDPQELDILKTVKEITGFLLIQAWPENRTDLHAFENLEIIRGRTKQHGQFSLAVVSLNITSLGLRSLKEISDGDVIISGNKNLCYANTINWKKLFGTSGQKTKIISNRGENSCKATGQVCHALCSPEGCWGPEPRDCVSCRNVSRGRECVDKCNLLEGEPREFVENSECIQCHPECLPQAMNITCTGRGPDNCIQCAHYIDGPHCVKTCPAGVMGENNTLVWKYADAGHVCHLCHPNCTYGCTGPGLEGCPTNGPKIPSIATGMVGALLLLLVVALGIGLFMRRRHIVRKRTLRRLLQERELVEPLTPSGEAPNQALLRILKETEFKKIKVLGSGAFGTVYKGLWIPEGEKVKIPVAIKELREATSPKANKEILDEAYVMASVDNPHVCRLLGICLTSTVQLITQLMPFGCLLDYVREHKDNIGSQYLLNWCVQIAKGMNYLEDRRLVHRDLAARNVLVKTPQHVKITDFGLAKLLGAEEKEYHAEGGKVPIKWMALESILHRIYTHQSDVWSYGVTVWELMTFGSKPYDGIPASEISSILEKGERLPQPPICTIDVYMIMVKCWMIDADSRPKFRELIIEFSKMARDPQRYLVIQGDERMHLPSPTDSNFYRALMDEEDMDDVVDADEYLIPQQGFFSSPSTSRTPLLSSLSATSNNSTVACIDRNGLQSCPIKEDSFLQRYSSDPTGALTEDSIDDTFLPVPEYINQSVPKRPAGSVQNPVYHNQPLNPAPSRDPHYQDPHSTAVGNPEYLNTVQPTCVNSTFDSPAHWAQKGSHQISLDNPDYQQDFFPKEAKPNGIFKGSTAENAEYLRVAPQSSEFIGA

Structure (SMILES)	Ki [1] [µM]	Ki [2] [µM]	also measured
O=[N+]([O-])c1cccc(CNc2ccnc3oc4ccc([N+](=O)[O-])cc4c23)c1	0.93	2.39	–
Nc1cccc(CNc2ccnc3oc4ccc([N+](=O)[O-])cc4c23)c1	3.59	6.18	–
Nc1ccc2oc3nccc(NCc4cccc(Br)c4)c3c2c1	0.23	–	IC50 [2]: > 1000 µM; inhibition of growth at 10 µM (BT-549): 29%; inhibition of growth at 10 µM (Hs-578T): 16%; inhibition of growth at 10 µM (HOP-62): 18%; inhibition of growth at 10 µM (NCI-H460): 23%
Nc1ccc2oc3nccc(NCc4ccc(Br)cc4)c3c2c1	–	–	IC50 [1]: > 1000 µM; IC50 [2]: > 1000 µM
COc1ccc(CNc2ccnc3oc4ccccc4c23)cc1	–	1.03	–
COc1ccc(CNc2ccnc3oc4ccc([N+](=O)[O-])cc4c23)cc1	2.05	3.4	–
COc1cccc(CNc2ccnc3oc4ccc(N)cc4c23)c1	0.17	0.54	inhibition of growth at 10 µM (BT-549): 43%; inhibition of growth at 10 µM (Hs-578T): 16%; inhibition of growth at 10 µM (HOP-62): 28%; inhibition of growth at 10 µM (NCI-H460): 29%
O=[N+]([O-])c1ccc2oc3nccc(NCc4cccc(Br)c4)c3c2c1	0.68	2.61	–
Nc1ccc2oc3nccc(NCc4ccc(Cl)cc4)c3c2c1	–	–	IC50 [1]: > 1000 µM; IC50 [2]: > 1000 µM
COc1cccc(CNc2ccnc3[nH]c4ccc([N+](=O)[O-])cc4c23)c1	0.33	0.89	–
O=[N+]([O-])c1ccc2oc3nccc(NCc4cccc(Cl)c4)c3c2c1	1.36	2.85	–
Nc1ccc2oc3nccc(NCc4cccc(Cl)c4)c3c2c1	0.4	4.6	–
COc1cccc(CNc2ccnc3[nH]c4ccc(N)cc4c23)c1	0.32	3.56	–
O=[N+]([O-])c1ccc2[nH]c3nccc(NCc4cccc(Cl)c4)c3c2c1	0.08	0.28	inhibition of growth at 10 µM (BT-549): 30%; inhibition of growth at 10 µM (Hs-578T): 82%; inhibition of growth at 10 µM (HOP-62): 89%; inhibition of growth at 10 µM (NCI-H460): 73%
Nc1ccc2[nH]c3nccc(NCc4cccc(Cl)c4)c3c2c1	0.14	1.92	–
O=[N+]([O-])c1ccc2oc3nccc(NCc4ccc(Cl)cc4)c3c2c1	2.52	3.54	–
COc1cccc(CNc2ccnc3oc4ccc([N+](=O)[O-])cc4c23)c1	2.74	4.56	–
O=[N+]([O-])c1ccc2[nH]c3nccc(NCc4cccc(Br)c4)c3c2c1	0.11	0.32	–
COc1ccc(CNc2ccnc3oc4ccc(N)cc4c23)cc1	–	–	IC50 [1]: > 1000 µM; IC50 [2]: > 1000 µM
Nc1ccc2[nH]c3nccc(NCc4cccc(Br)c4)c3c2c1	0.11	2.1	–
O=[N+]([O-])c1ccc2oc3nccc(NCc4ccc(Br)cc4)c3c2c1	0.81	2.87	–
Nc1cccc(CNc2ccnc3oc4ccc(N)cc4c23)c1	0.94	8.93	–
